Laboratory results: patent US9073918B2, “Pyrazolo[4,3-b]pyridine-7-amine inhibitors of ALK5” (Takeda Pharmaceutical Company Limited, priority 2010, dated 2015)
pIC50: −log10 of the molar value.

What was measured:
TGF-β R1 ALK5 = molecular target: T1, TGF-β R1 ALK5 (Homo sapiens, UniProt P36897); assay: In vitro inhibition of ALK5 (LanthaScreen activity assay, TR-FRET); assay type: biochemical
T1 construct: purchased Invitrogen PV5837
T1 sequence (P36897 34-503): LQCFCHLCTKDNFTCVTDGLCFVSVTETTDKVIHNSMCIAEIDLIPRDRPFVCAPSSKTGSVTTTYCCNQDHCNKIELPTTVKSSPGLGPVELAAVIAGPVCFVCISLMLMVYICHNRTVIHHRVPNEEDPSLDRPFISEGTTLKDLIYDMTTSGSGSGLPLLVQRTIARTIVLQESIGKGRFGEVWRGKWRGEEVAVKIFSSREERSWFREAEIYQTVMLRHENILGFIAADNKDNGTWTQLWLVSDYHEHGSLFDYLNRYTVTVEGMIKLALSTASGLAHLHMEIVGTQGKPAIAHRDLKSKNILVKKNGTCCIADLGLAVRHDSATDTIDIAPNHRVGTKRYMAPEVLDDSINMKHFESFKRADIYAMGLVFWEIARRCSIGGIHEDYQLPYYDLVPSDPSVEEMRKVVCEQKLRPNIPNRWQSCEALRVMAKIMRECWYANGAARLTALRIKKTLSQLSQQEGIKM
Experimental: Test compounds were screened for TGF-β R1 ALK5 inhibition by use of a LanthaScreen™ activity assay (PV5837 Invitrogen, Invitrogen Corp. Madison, Wis.).
In brief, the assay procedure was as follows:
Solutions of test compounds were prepared in DMSO and diluted two-fold serially.
Assays were incubated for 90 minutes at room temperature and then quenched by the addition of 60 mM EDTA and 8 nM Terbium labeled anti-pSMAD3 Antibody (M4337 from Invitrogen) giving a final concentration of 15 mM EDTA and 2 nM Terbium labeled anti-pSMAD3 Antibody. Phosphorylated peptide product was quantified by measuring an increase in TR-FRET on a BMG LABTECH PHERA star plus. Response is defined as the ratio of Channel A/Channel B. The response of a blank (uninhibited) using vehicle alone is also determined. Enzyme activity was defined as the response of uninhibited enzyme activity minus the response of assays containing no enzyme. The percent inhibition of ALK5 at a given compound concentration is defined as: 100%×[1−(response compound/response blank)]
where response compound is defined as the enzyme activity in the presence of test compound and response blank is defined as the uninhibited enzyme activity. The pIC50 value (negative log of the molar concentration of the compound that produces 50% inhibition) of a test compound is calculated by non-linear least squares curve fitting of the equation: Percent Inhibition=100%/(1+(10−pIC50/10 log [I])).
Where inhibition was measured in multiple experiments the value in Table 1 is an average. N.T. means not tested.

cellular TGF-β R1 ALK5 = molecular target: T2, cellular TGF-β R1 ALK5 (Homo sapiens, UniProt P36897); assay: Cellular inhibition of ALK5 (CellSensor SBE-bla HEK 293T beta-lactamase reporter); assay type: cell-based; details: cellular inhibition of ALK5, SBE-bla HEK 293T cells, TGFb-1 stimulated 5 hours; average where measured in multiple experiments
T2 construct: host or cells: CellSensor SBE-bla HEK 293T
T2 sequence (P36897 34-503): T1 sequence (P36897 34-503)
From the text: Test compounds were screened for cellular TGF-β R1 ALK5 inhibition by use of a CellSensor® SBE-bla HEK 293T (K1550, Invitrogen Corp. Madison, Wis.) cell line. The CellSensor® SBE-bla HEK 293T cell line contains a beta-lactamase reporter gene under control of the SBE response element stably integrated into HEK 293T cells. The SBE response element is a DNA region that binds activated SMADs which results from the binding of TGF-β to, and subsequent activation of ALK5.
The assay procedure was as follows:
CellSensor® SBE-bla HEK 293T cell line were plated at 12,000 cells/well in 40 ul DMEM plus 5 ug/ml blasticidin into 384-well, black-wall, clear-bottom assay plate and incubated overnight.
The following day 5 uL of 10×, 2.5-fold serially diluted test compounds in DMSO were added into cells to a final compound concentration of 1× and DMSO concentration of 0.5%. Assay was incubated for 1 hour at 37° C., 5% CO2, 5 uL of 100 ng/mL TGFb-1 was then added to activate ALK5 and incubated for 5 hours at 37° C., 5% CO2, 10 uL of detector, LiveBLAzer FRET B/G substrate (CCF4-AM, Invitrogen Corp. Madison, Wis.) was added to cells and incubated for 2 hours at RT. Assay was measured using Spectramax, a bottom-read fluorescence plate reader, at excitation setting of 405 nm and emission settings of 460 nm and 530 nm.
Response is defined as the ratio of background corrected 460 nm emission values/background corrected 530 nm emission values. Cellular activity was defined as percent inhibition of uninhibited ALK5 activity (wells treated with DMSO+TGF-β). The percent inhibition of cellular ALK5 at a given compound concentration is defined as: 100%×[1−(response compound+TGF-β/response DMSO+TGF-β)] where response compound+TGF-β is defined as the activity in the presence of test compound and response DMSO+TGF-β is defined as the uninhibited cellular ALK5 activity. The pIC50 value (negative log of the molar concentration of the compound that produces 50% inhibition) of a test compound is calculated by non-linear least squares curve fitting. pIC50 values, the negative of the log of the IC50, are calculated by non-linear curve fitting of the compound concentrations and percent of inhibition to the standard pIC50 equation.
Where inhibition was measured in multiple experiments the value in Table 2 is an average. N.T. means not tested.

| Compound | pIC50 (TGF-β R1 ALK5) | pIC50 (cellular TGF-β R1 ALK5) |
| --- | --- | --- |
| Cc1cnc(-c2cc(Cl)ccc2F)nc1Nc1ccnc2cn[nH]c12 [Example 1, N-(2-(5-chloro-2-fluorophenyl)-5-methylpyrimidin-4-yl)-1H-pyrazolo[4,3-b]pyridin-7-amine] | 8.00 | 7.30 |
| CNC(=O)n1ncc2nccc(Nc3nc(-c4cc(Cl)ccc4F)ncc3C)c21 [Example 2, 7-(2-(5-chloro-2-fluorophenyl)-5-methylpyrimidin-4-ylamino)-N-methyl-1H-pyrazolo[4,3-b]pyridine-1-carboxamide] | 8.20 | 7.10 |
| Cc1ccc(F)c(-c2cc(Nc3ccnc4cnn(C(C)C)c34)c(C)cn2)n1 [Example 5, N-(3′-fluoro-5,6′-dimethyl-2,2′-bipyridin-4-yl)-1-isopropyl-1H-pyrazolo[4,3-b]pyridin-7-amine] | 7.40 | 6.70 |
| Cc1cccc(-c2cc(Nc3ccnc4cn[nH]c34)c(C)cn2)n1 [Example 6, N-(5,6′-dimethyl-2,2′-bipyridin-4-yl)-1H-pyrazolo[4,3-b]pyridin-7-amine] | 8.30 | 7.60 |
| Cc1ccc(F)c(-c2cc(Nc3ccnc4cn(C[C@H](O)CO)nc34)c(C)cn2)n1 [Example 7, (S)-3-(7-(3′-fluoro-5,6′-dimethyl-2,2′-bipyridin-4-ylamino)-2H-pyrazolo[4,3-b]pyridin-2-yl)propane-1,2-diol] | 7.80 | 6.70 |
| Cc1ccc(F)c(-c2cc(Nc3ccnc4cnn(CCO)c34)c(C)cn2)n1 [Example 10, 2-(7-(3′-fluoro-5,6′-dimethyl-2,2′-bipyridin-4-ylamino)-1H-pyrazolo[4,3-b]pyridin-1-yl)ethanol] | 8.00 | 7.70 |
| COCCn1cc2ncc(F)c(Nc3cc(-c4cc(Cl)ccc4F)ncc3C)c2n1 [Example 16, N-(2-(5-chloro-2-fluorophenyl)-5-methylpyridin-4-yl)-6-fluoro-2-(2-methoxyethyl)-2H-pyrazolo[4,3-b]pyridin-7-amine] | 7.50 | 6.30 |
| Fc1ccc(Cl)cc1-c1cc(Nc2ccnc3cn[nH]c23)ccn1 [Example 17, N-(2-(5-chloro-2-fluorophenyl)pyridin-4-yl)-1H-pyrazolo[4,3-b]pyridin-7-amine] | 8.30 | 7.30 |
| OC[C@@H](O)Cn1cc2nccc(Nc3ccnc(-c4cc(Cl)ccc4F)c3)c2n1 [Example 47, (S)-3-(7-(2-(5-chloro-2-fluorophenyl)pyridin-4-ylamino)-2H-pyrazolo[4,3-b]pyridin-2-yl)propane-1,2-diol] |  | 6.40 |
| Cc1ccc(F)c(-c2cc(Nc3ccnc4cnn(C5CCN(S(C)(=O)=O)CC5)c34)ccn2)c1 [Example 78, N-(2-(2-fluoro-5-methylphenyl)pyridin-4-yl)-1-(1-(methylsulfonyl)piperidin-4-yl)-1H-pyrazolo[4,3-b]pyridin-7-amine] | 6.20 |  |
| CCNC(=O)n1ncc2nccc(Nc3ccnc(-c4cc(C)ccc4F)c3)c21 [Example 80, N-ethyl-7-(2-(2-fluoro-5-methylphenyl)pyridin-4-ylamino)-1H-pyrazolo[4,3-b]pyridine-1-carboxamide] | 7.50 |  |
| Cc1ccc(F)c(-c2cc(Nc3ccnc4cn(CC(N)=O)nc34)ccn2)n1 [Example 84, 2-(7-(3′-fluoro-6′-methyl-2,2′-bipyridin-4-ylamino)-2H-pyrazolo[4,3-b]pyridin-2-yl)acetamide] | 7.50 |  |
| Cc1ccc(F)c(-c2cc(Nc3ccnc4cnn(CC(N)=O)c34)ccn2)n1 [Example 85, 2-(7-(3′-fluoro-6′-methyl-2,2′-bipyridin-4-ylamino)-1H-pyrazolo[4,3-b]pyridin-1-yl)acetamide] | 7.60 |  |
| CNC(=O)Cn1ncc2nccc(Nc3cc(-c4cc(F)ccc4F)ncc3C)c21 [Example 159, 2-(7-(2-(2,5-difluorophenyl)-5-methylpyridin-4-ylamino)-1H-pyrazolo[4,3-b]pyridin-1-yl)-N-methylacetamide] | 7.40 |  |
